Some test systems named below: HOP-62 NSCLC; KM12 colon; SK-MEL-2 melanoma; HCC-2998 colon; SN12C renal; OVCAR-8 ovarian; SK-MEL-5 melanoma; HT29 colon; HCT-116 colon; SK-OV-3 ovarian.
Holding throughout (experiment): NCI tumour cell line growth inhibition, 48 h

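Dose response: 5 concentrations. Exposure: 48 h. Format: 96-well plates. Endpoint: linear interpolation; highest concentration if not reached. At the GI50, growth is halved. TGI: concentration producing complete growth inhibition.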 Bounds are passed on as bounds.

For the molecule `COc1ccc(-c2nn(-c3ccc(NC(=O)Nc4ccc(Cl)c(Cl)c4)cc3)cc2-c2ccncc2)cc1Cl`, the GI50 is 3.73 µM in the assay on HOP-62 NSCLC; 2.13 µM in the assay with KM12 colon; 2.02 µM with SK-MEL-2 melanoma; 2.78 µM in the assay with HCC-2998 colon; 2.6 µM in the assay with SN12C renal; 2.72 µM in the assay with OVCAR-8 ovarian. For the same molecule, the GI50 in the assay with SK-MEL-5 melanoma was 2.26 µM; in the assay on HT29 colon, 2.55 µM; with HCT-116 colon it was 1.65 µM. The TGI in the assay on HOP-62 NSCLC is greater than 100 µM; in the assay on KM12 colon, greater than 100 µM; with SK-MEL-2 melanoma it was 4.76 µM; in the assay on HCC-2998 colon, greater than 100 µM; in the assay with SN12C renal it was greater than 100 µM; in the assay on OVCAR-8 ovarian it was greater than 100 µM. The TGI in the assay with SK-MEL-5 melanoma is 5.96 µM; in the assay on HT29 colon it was greater than 100 µM; in the assay with HCT-116 colon, 11.7 µM.
Take `Nc1cc(S(=O)(=O)O)cc2cc(S(=O)(=O)O)c(N=Nc3ccc(-c4ccc(N=Nc5c(S(=O)(=O)O)cc6cc(S(=O)(=O)O)cc(N)c6c5O)cc4)cc3)c(O)c12`: the TGI in the assay on HOP-62 NSCLC, with KM12 colon, in the assay on SK-MEL-2 melanoma, in the assay with HCC-2998 colon, with SN12C renal and in the assay with SK-OV-3 ovarian was greater than 100 µM each time. Further, the TGI with OVCAR-8 ovarian, in the assay on SK-MEL-5 melanoma, in the assay on HT29 colon and with HCT-116 colon was greater than 100 µM throughout.
As for `C/C1=N\NC(=O)c2ccccc2C(=O)N/N=C(\C)c2cccc1n2.O=[N+]([O-])[O-].[Zn+2]`, the TGI in the assay on HOP-62 NSCLC, in the assay with KM12 colon, in the assay with SK-MEL-2 melanoma, with HCC-2998 colon, in the assay on SN12C renal and in the assay on SK-OV-3 ovarian was greater than 100 µM in each case. For the same molecule, the TGI in the assay on OVCAR-8 ovarian, in the assay on SK-MEL-5 melanoma, in the assay with HT29 colon and in the assay on HCT-116 colon was greater than 100 µM each time.
For the molecule `O=Nc1ccc(O)c2ncccc12`, the TGI in the assay with HOP-62 NSCLC was determined as 15 µM; in the assay with KM12 colon, 20.4 µM; in the assay on SK-MEL-2 melanoma, 6.39 µM; in the assay with HCC-2998 colon, 31.1 µM; with SN12C renal it was 25.2 µM; in the assay with SK-OV-3 ovarian it was 31.3 µM. The TGI in the assay on OVCAR-8 ovarian is greater than 34.1 µM; in the assay with SK-MEL-5 melanoma, 19.7 µM; in the assay with HT29 colon, 34.6 µM; in the assay on HCT-116 colon, 3.04 µM.
For `O=C(O)CC(C(=O)O)C1c2ccccc2-c2ccccc21` (centres undefined), the TGI with HOP-62 NSCLC, with KM12 colon, with SK-MEL-2 melanoma, in the assay with HCC-2998 colon, with SN12C renal and in the assay with SK-OV-3 ovarian was greater than 100 µM each time. Also, the TGI in the assay on OVCAR-8 ovarian, in the assay with SK-MEL-5 melanoma, in the assay with HT29 colon and in the assay with HCT-116 colon was greater than 100 µM throughout.
Regarding `CC(C)=CCc1c(O)ccc2c1OC1c3ccc(O)c(CC=C(C)C)c3OCC21` (centres undefined), the TGI with HOP-62 NSCLC stood at 23.9 µM; with KM12 colon, 33.7 µM; in the assay with SK-MEL-2 melanoma it was 34.3 µM; in the assay with HCC-2998 colon, 26 µM; with SN12C renal, 30.3 µM; in the assay with SK-OV-3 ovarian, 35.1 µM. The TGI in the assay on OVCAR-8 ovarian was 52.6 µM; in the assay with SK-MEL-5 melanoma, 17.8 µM; in the assay on HT29 colon, greater than 61.9 µM; in the assay on HCT-116 colon, 18.3 µM.
On to `O=[N+]([O-])c1ccc(/C=N\Nc2ccc([N+](=O)[O-])cn2)cc1`, for which the TGI in the assay with HOP-62 NSCLC, with KM12 colon, in the assay with SK-MEL-2 melanoma, with HCC-2998 colon, in the assay with SN12C renal and in the assay with SK-OV-3 ovarian was greater than 100 µM throughout. Further, the TGI in the assay on OVCAR-8 ovarian, in the assay with SK-MEL-5 melanoma, in the assay with HT29 colon and in the assay with HCT-116 colon was greater than 100 µM each time.
`c1ccc(-n2cnnc2-c2nsc3ccccc23)cc1`: the TGI in the assay with HOP-62 NSCLC, in the assay on KM12 colon, in the assay with SK-MEL-2 melanoma, in the assay on HCC-2998 colon, in the assay on SN12C renal and in the assay with OVCAR-8 ovarian was greater than 100 µM throughout. The TGI in the assay on SK-MEL-5 melanoma, in the assay with HT29 colon and in the assay on HCT-116 colon was greater than 100 µM in each case.
Regarding `COc1cc(C(C)(C)C)cc(OC)c1C(O)(c1c(OC)cc(C(C)(C)C)cc1OC)c1c(OC)cc(C(C)(C)C)cc1OC`, the GI50 with KM12 colon was 0.349 µM; with SK-MEL-2 melanoma, 0.325 µM; in the assay on HCC-2998 colon, 0.429 µM; in the assay with SK-MEL-5 melanoma, 0.236 µM; in the assay with HT29 colon, 0.224 µM; in the assay with HCT-116 colon it was 0.249 µM. Further, the TGI is 1.05 µM with KM12 colon; 0.692 µM in the assay on SK-MEL-2 melanoma; 1.36 µM in the assay on HCC-2998 colon; 0.552 µM in the assay with SK-MEL-5 melanoma; 0.877 µM with HT29 colon; 0.901 µM with HCT-116 colon.
Consider `CN1CCC(C(=O)NNc2ccccc2)CC1`, for which the TGI in the assay with HOP-62 NSCLC was greater than 86.1 µM; with KM12 colon, greater than 77.8 µM; with SK-MEL-2 melanoma it was greater than 46.4 µM; in the assay on HCC-2998 colon, 12.6 µM; with SN12C renal it was greater than 100 µM; with SK-OV-3 ovarian, greater than 100 µM. The TGI with OVCAR-8 ovarian is greater than 100 µM; in the assay with SK-MEL-5 melanoma, 45.6 µM; with HT29 colon, greater than 100 µM; in the assay with HCT-116 colon, greater than 100 µM.
As to `COc1ccc2[nH]c3c([N+](=O)[O-])ccc(Cl)c3c(=O)c2c1`, the TGI with HOP-62 NSCLC is 73.6 µM; with KM12 colon, greater than 73.4 µM; in the assay on SK-MEL-2 melanoma, 58.5 µM; in the assay with HCC-2998 colon, greater than 71.2 µM; with SN12C renal, 55.1 µM; with SK-OV-3 ovarian, greater than 100 µM. Besides, the TGI with OVCAR-8 ovarian is greater than 74 µM; in the assay on SK-MEL-5 melanoma, 55.2 µM; in the assay with HT29 colon, 32.2 µM; in the assay with HCT-116 colon, 27.4 µM.
Turning to `N=C(N)c1ccc(-c2ccc(-c3cncc4ccccc34)s2)cc1F`, the GI50 in the assay on KM12 colon was 1.83 µM; in the assay on SN12C renal it was 1.85 µM; in the assay on SK-OV-3 ovarian it was 1.84 µM; in the assay on SK-MEL-5 melanoma, 1.75 µM; in the assay with HT29 colon it was 1.68 µM. In addition, the TGI came out at 3.51 µM in the assay with KM12 colon; 3.65 µM in the assay with SN12C renal; 3.63 µM in the assay with SK-OV-3 ovarian; 3.26 µM with SK-MEL-5 melanoma; 4.48 µM with HT29 colon.
For `C=C1C(=O)OC2/C=C(\C)C(=O)CC3OC(C)(C)OC3(C)CC(OC(=O)/C(C)=C/C)C12` (centres undefined), the TGI is greater than 100 µM in the assay with HOP-62 NSCLC; 38 µM in the assay with KM12 colon; 82.8 µM with SK-MEL-2 melanoma; 34.9 µM in the assay on HCC-2998 colon; greater than 59.2 µM with SN12C renal; greater than 100 µM with SK-OV-3 ovarian. The TGI was greater than 68.9 µM with OVCAR-8 ovarian, greater than 91.2 µM in the assay with SK-MEL-5 melanoma, 37.2 µM in the assay with HT29 colon and greater than 44.1 µM in the assay with HCT-116 colon.
Regarding `Cc1ccc(P(c2ccc(C)cc2)c2ccc(C)cc2)cc1`, the TGI in the assay on KM12 colon is 60.9 µM; in the assay with SK-MEL-2 melanoma it was 57.9 µM; in the assay on HCC-2998 colon it was 36 µM; in the assay on SN12C renal it was 34.3 µM; in the assay with SK-OV-3 ovarian, 95.9 µM; with OVCAR-8 ovarian, 59.6 µM. In addition, the TGI is 33.1 µM in the assay with SK-MEL-5 melanoma, greater than 100 µM with HT29 colon and 28.2 µM in the assay on HCT-116 colon.
For the molecule `OC(Cc1ccccc1)(Cc1ccccc1)c1ccccc1`, the TGI is 36.1 µM in the assay on HOP-62 NSCLC; 33.3 µM in the assay with KM12 colon; 29.6 µM in the assay on SK-MEL-2 melanoma; 32 µM in the assay on SN12C renal; 39.6 µM in the assay with OVCAR-8 ovarian; 32.5 µM in the assay on SK-MEL-5 melanoma. In addition, the figures for the TGI with HT29 colon and in the assay on HCT-116 colon were 34.9 µM and 35.8 µM, respectively.
For `C=C(C)C(=O)OC1C(C(C)CCCO)=C(CO)CC2OC(=O)C(=C)C21` (centres undefined), the TGI with HOP-62 NSCLC is greater than 100 µM; in the assay with KM12 colon, 27.7 µM; with SK-MEL-2 melanoma it was 61.7 µM; in the assay with HCC-2998 colon, 31.8 µM; with SN12C renal, 32.8 µM; with SK-OV-3 ovarian, 95.7 µM. For the same molecule, the TGI in the assay with OVCAR-8 ovarian is greater than 100 µM; in the assay with SK-MEL-5 melanoma, 28.5 µM; in the assay with HT29 colon, 45.9 µM; in the assay on HCT-116 colon, 32.2 µM.
For `CC(C)(C)C1(c2ccc(C3(c4ccccc4)Oc4ccccc4S3)[nH]2)Oc2ccccc2S1` (centres undefined), the TGI with HOP-62 NSCLC, in the assay on SK-MEL-2 melanoma, with HCC-2998 colon, in the assay with SN12C renal, with SK-OV-3 ovarian and in the assay with OVCAR-8 ovarian was greater than 100 µM throughout. For the same molecule, the TGI in the assay with SK-MEL-5 melanoma, in the assay on HT29 colon and in the assay with HCT-116 colon was greater than 100 µM each time.
In the case of `C=C1CC23CCC4C(C)(C(=O)O)CCCC4(C)C2CCC1C3` (centres undefined), the TGI in the assay with HOP-62 NSCLC is greater than 100 µM; in the assay on KM12 colon, greater than 100 µM; in the assay on SK-MEL-2 melanoma, greater than 100 µM; with HCC-2998 colon it was 78.6 µM; in the assay on SN12C renal, greater than 100 µM; in the assay with SK-OV-3 ovarian, greater than 100 µM. Also, the TGI in the assay with OVCAR-8 ovarian, in the assay with HT29 colon and with HCT-116 colon was greater than 100 µM each time.

The values above are taken from PubChem BioAssay (NCI).
